Measured values taken from EP0551200A1, “Protein phosphatase inhibitors for use in therapy” (priority 1992, dated 1993).

Assays:
[1] = tested on: c-abl; assay: Phosphorylation of cdc2 kinase substrate c-abl, immunoprecipitation; assay type: cell-based, human; conditions: 50 units/ml TNF or 100 nM OA
Method: Where c-abl (top panel) or p53 (bottom panel) phosphorylation was measured, cells were treated for the times indicated with 50 units/ml TNF or 100 nM OA. Where RB (middle panel) phosphorylation was measured, cells were treated for 15 min with the indicated doses of TNF (in units/ml) or OA (in nM). Cell lysates were immunoprecipitated with antibodies to either c-abl, RB, or p53 (from Oncogene Science). The immunoprecipitated proteins were subjected to 6 or 10% SDS-PAGE and autoradiography. Note that in the middle panel, the lesser extent of RB phosphorylation observed with 500 nM OA as compared to 100 nM OA is due to the loading of about four times less amount of protein in the 500 nM OA than the 100 nM OA-treated sample to the gel. At either concentration of OA, the ratio of the hyperphosphorylated form of RB is higher than the hypophosphorylated form of RB.
Phosphorylation of cdc2 Kinase Substrates in Cells Treated with IL-1, TNF, or Okadaic Acid - It is noted from Fig. 1 (e and f) that the phosphorylation of myosin light chain and nucleolin are enhanced by TNF and okadaic acid treatment. Both proteins are known to be substrates of cdc2 kinase. In this connection, a question was raised as to whether other cdc2 kinase substrates which are known to be phosphorylated by okadaic acid treatment are also effected in TNF-treated human fibroblasts. […]

[2] = tested on: human fibroblasts; assay: Early protein phosphorylation changes in 32P-labeled cells, two-dimensional gel electrophoresis with computerized densitometry; assay type: cell-based
Method: The cells were then subjected to analysis by high resolution two-dimensional gel electrophoresis combined with computerized imaging as previously described (Guy et al, J. Biol. Chem. 266, 14343-14352, 1991).
Radiolabeling of Cells and Cell Lysis - For labeling with [³²P]orthophosphate cells were plated onto 90 mm plastic tissue culture dishes and incubated for 3 days for the cells to become confluent. Immediately before labeling, the media was removed and the cells were washed twice with 5 ml of phosphate- and serum-free media (150 mM NaCl, 5 mM MgCl₂, 5 mM KCl, 1.6 mM CaCl₂, 0.5% glucose, 10 mM Tris, 0.1% bovine serum albumin, pH 7.4) before the addition of 1 mCi/ml of [³²P]orthophosphate in 3 ml of the same media to each plate. The plates were incubated at 37°C in a humidified CO₂ incubator for 2 h before the addition of the okadaic acid or other agonists at the concentrations and for the times indicated in the figures and table. The agonists were reconstituted in aqueous buffered solution or in dimethyl sulfoxide. […] At the completion of labeling the media was removed, and the cells were rapidly washed twice with 5 ml of ice-cold phosphate-buffered saline before being solubilised in 200 µl of cytosol extraction buffer (10mM Tris-HCl, 50 mM EDTA, 50 mM NaCl, 30 mM sodium pyrophosphate, 50 mM NaF, 100µM Na₃VO₄, 0.65% Nonidet P-40, 2 mM leupeptin, 2mM phenylmethylsulfonyl fluoride, pH 7.4). The lysate was collected and centrifuged for 5 min at 14,000 rpm. The pellet containing the nuclear fraction (including the cytoskeletal-membrane fractions) was separated from the cytosolic fraction. Both fractions were lyophilized.
Two-dimensional Gel Electrophoresis - The lyophilized fractions (each of approximately 12 µg) were subjected to isoelectric focusing for 18,000 V/h with pH 3-10 ampholytes using the Millipore Investigator two-dimensional electrophoresis system (Millipore). Following this, the first-dimension gel was extruded and equilibrated in SDS buffer for 2 min before being loaded onto the second dimension 12.5% SDS-polyacrylamide gel. The gel was fixed, dried and ³²P-labeled polypeptides were located by autoradiography by using intensifying screens at -80°C. For measurement of the pH profile, carbamylated protein standards (Pharmacia LKB Biotechnology Inc.) were co-run on duplicate gels and related to proteins of known pI on previously calibrated samples. Molecular weight marker proteins from Sigma were detected by Coomassie Blue staining and marked on the autoradiogram. ³²P-Labeled 27 hsp complex prepared from human fibroblasts heat shocked at 43°C for 30 min was also used as a marker.
Quantitative Determination of Protein Phosphorylation - The amount of protein phosphorylation on autoradiographs derived from cytosolic membrane or antibody-precipitated preparations containing equal amounts of protein were analyzed by computerized densitometry using a Visage 2000 Image analysis system (BioImage Products, Ann Arbor, MI, US).
The ³²P-labeled protein spots are resolved and detected by autoradiography of the high definition two-dimensional gel electrophoresis of cytosolic extracts prepared from ³²P-labeled human fibroblasts. The radioactive spots (each representing one or more phosphoproteins) are analyzed by computerized densitometry. Each spot is arbitrarily assigned a number. […]

[3] = tested on: Egr-1 mRNA; assay: Northern blot analysis of Egr-1 mRNA induction in quiescent primary human fibroblasts; assay type: cell-based
Method: Quiescent human fibroblasts were incubated with TNF (500 units/ml) (a) or OA (500 nM) (b) for 0, 30, 60 min after which total cellular RNA was extracted. Blots of RNA from these cells were hybridized to radiolabeled (10⁶ cpm/ml) Egr-1 cDNA probe. c, the blot in b was stripped and reprobed with c-jun cDNA. Note: Egr-1 mRNA probe was not completely stripped from the blot. The autoradiograph of the blot is presented. d, regularly maintained cells were incubated wither with no additions (control, 0 time) or with OA for 1, 3, 5, 7 h and Northern analysis was carried out with an IL-6 cDNA probe (ATCC, Rockville, MD, US).
10 µg of RNA was applied to each lane and subjected to Northern blot analysis using an Egr-1 specific cDNA probe [1.6 kb Bgl II fragment (Sukhatme et al, Cell 53, 37-48, 1988)]. The same blots were rehybridized with actin or GADPH cDNA for normalizing the amount of RNA loaded. The blots were dried and autoradiographed. • (A). Time course of okadaic acid-induced Egr-1 and c-jun messages in primary human fibroblasts. Quiescent human fibroblasts were induced with 1 µM of okadaic acid for the time periods indicated. […] Time course of okadaic acid-induced Egr-1 message in Balb/c 3T3 cells. Quiescent Balb/c 3T3 cells were induced with okadaic acid (0.5µM) for the times indicated. • (C). Concentration dependent induction of Egr-1 message by okadaic acid in Balb/c 3T3 cells. Quiescent Balb/c 3T3 cells were induced with the indicated concentrations of okadaic acid for 1 h. As controls, different concentrations of DMSO were included. These corresponded to the amounts present in 0.25 µM okadaic acid (0.025% dimethyl sulphoxide (DMSO)) 0.5 µM okadaic acid (0.05% DMSO) and 1 µM okadaic acid (0.1%). • (D). Concentration dependent and time course induction of Egr-1 message by calyculin A. Quiescent Balb/c 3T3 cells were induced with different concentrations of calyculin A for 1 h. Northern analysis of this dose-dependent induction by calyculin A is shown on the left panel of the figure. […] Northern analysis of this time course induction by calyculin A is shown in the right panel of the figure. The same blot was rehybridized with pCMV-fos (Curran et al, Oncogene 2, 79-84, 1987) and pCMV-jun (Rauscher et al, 1988) shown in the middle panel. The blot was dried and autoradiographed.
Cells were incubated with either 0.5 µM of okadaic acid or 10 µg/ml of cycloheximide as well as with 0.5 µM of okadaic acid and 10 µg/ml of cycloheximide for 1.5, 3 or 6 h. Cells were harvested, RNA isolated and subjected to Northern blot analysis. The blot was probed with Egr-1 or actin cDNA.
Quiescent primary human fibroblasts were incubated with okadaic acid (OA) or TPA for 1 or 3 h. The concentrations of OA and TPA were 0.5 µM and 120 ng/ml, respectively. The concentration of 1-(5-isoquinolinylsulfonyl)-2-methylpiperazine dihydrochloride (H7) and N-(2-guanidinoethyl)-5-isoquinolinesulphonamide dihydrochloride (HA1004) used was 25 µM. The cells were pre-treated for 15 min with H7 or HA1004 before they were induced by OA or TPA for 1 or 3 h. Cells were harvested, RNA was isolated and subjected to Northern blot analysis. The blot was probed with Egr-1 or GADPH cDNA. • (B). As a positive control, primary human fibroblasts were treated with TPA (30 ng/ml) for 1 h (1st lane). The fibroblasts were also pre-treated with H7 (25 µM) or HA1004 (25 µM) for 15 min before treatment with TPA for 1 h (2nd and 3rd lanes respectively). […] The blot was probed with Egr-1 or actin cDNA. • (C). Quiescent Balb/c 3T3 cells were incubated with OA, TPA or dBt-cAMP for 1 h or pre-treated with H7 (25 µM) or HA1004 (25 µM) for 15 min and then incubated with each of the agonists for 1 h. Cells were harvested, RNA was isolated and subjected to Northern blot analysis. […]

[4] = cytosolic fraction, first 15 min of ligand treatment

## C=C1[C@@H](O)[C@@H]2O[C@]3(CC[C@H](/C=C/[C@@H](C)[C@@H]4CC(C)=C[C@@]5(O[C@H](C[C@@](C)(O)C(=O)O)CC[C@H]5O)O4)O3)CC[C@H]2O[C@@H]1[C@@H](O)C[C@H](C)[C@H]1O[C@@]2(CCCCO2)CC[C@H]1C [okadaic acid]
[1]
  phosphorylation of c-abl (in words): enhanced the phosphorylation
[2]; [4]
  number of proteins dephosphorylated: six
  number of proteins with early phosphorylation changes: about 60 proteins
[2]; cytosolic fraction, okadaic acid, 15 min, TNF 50 units/ml
  identity of changes in early protein phosphorylation with those induced by TNF: about 95%
[2]; nuclear/cytoskeletal membrane fraction, 46-50 proteins, 15 min
  changes in protein phosphorylation compared with TNF treatment (in words): almost identical changes
[3]; 1 µM
  time for which the Egr-1 mRNA level is maintained: up to 7 h
  time of maximal induction of Egr-1 mRNA: about 2 h
[3]; 1 µM, Example 2
  time to induction of Egr-1 mRNA: ≤ 1 h
[3]; Homo sapiens, Fibroblast, read-out: Egr-1 mRNA level over control
  fold induction at 1 µM: 30 to 40
[3]; OA 500 nM, Example 1
  time to induction of Egr-1: ≤ 30 min
